These results are taken from paper PMC5726399 (Neuropharmacology, 2017).

Test [1] concerns NMDA receptors. As to conditions: ref Chen et al., 2010, cited from earlier work; for effect on NMDA-induced substance P release: Marvizon et al., 1997.
The subject of another test is AC/PKA pathway. The experiment in a line: NK1R internalization induced by forskolin or 8-Br-cAMP in slices. Also on record: species or system rat. The following applies: 60 min; for NK1R internalization elicited: 10 μM forskolin or 0.5 mM 8-Br-cAMP, no NMDA.
The subject of test [2] is NMDA receptor-induced substance P release. The test is described as follows: NMDA-induced NK1R internalization in slices preincubated with BVT948. Also on record: species or system rat. As to conditions: 10 μM BVT948, 60 min preincubation.
In a further test the test system is protein kinase A (PKA). The experiment in a line: PKA inhibition: NMDA-induced NK1R internalization in slices. Also on record: species or system rat. The following applies: 10 μM, 60 min.
The subject of test [3] is CTX-insensitive component of NMDA-induced substance P release. The test is described as follows: CTX-insensitive component of NMDA-induced substance P release in slices. Also on record: species or system rat. As to conditions: 1 μM DAMGO, 100 μM SQ22536 or 10 μM KT5720, 60 min; for additional inhibition in presence of CTX GVIA: 1 μM CTX GVIA; for additional inhibition in presence of CTX MVIIC: 1 μM CTX MVIIC.

Test [4] relates to NMDA receptors. The experiment in a line: NMDA-induced NK1R internalization in spinal cord slices. Also on record: species or system rat. The following applies: 10 μM NMDA + 10 μM D-Ser, 2 min, 35 °C.
Test [5] has as its system substance P release / NK1R internalization in lamina I neurons. The test is described as follows: In vivo NK1R internalization induced by intrathecal NMDA. Also on record: species or system rat. As to conditions: for lamina 1 neurons with NK1R internalization in example image: confocal image, one rat per group, L4.
Test [6] deals with NMDA receptors in DRG neurons. The test is classed as cell-based, rat.
For another test, the system named is protein kinase C (PKC). The test is described as follows: PKC inhibitors and activators: NMDA-induced NK1R internalization in slices. Also on record: species or system rat. As to conditions: for effect on NMDA-induced substance P release: 60 min.
In another test the test system is adenylyl cyclase (AC). The experiment in a line: AC inhibition: NMDA-induced NK1R internalization in slices. Also on record: species or system rat. The following applies: SQ22536 10 μM, 60 min.
Test [7] deals with TRPV1 channels. The following applies: cited from earlier work.
The test system of test [8] is TRPV1 channels. Also on record: species or system rat.
For test [9], the target named is NMDA receptors with the NR2B subunit (Rattus norvegicus, UniProt P35439+Q00960). The following applies: % NK1R internalization.
Sequence of NMDA receptors with the NR2B subunit (Q00960 27-1482, other chains not shown): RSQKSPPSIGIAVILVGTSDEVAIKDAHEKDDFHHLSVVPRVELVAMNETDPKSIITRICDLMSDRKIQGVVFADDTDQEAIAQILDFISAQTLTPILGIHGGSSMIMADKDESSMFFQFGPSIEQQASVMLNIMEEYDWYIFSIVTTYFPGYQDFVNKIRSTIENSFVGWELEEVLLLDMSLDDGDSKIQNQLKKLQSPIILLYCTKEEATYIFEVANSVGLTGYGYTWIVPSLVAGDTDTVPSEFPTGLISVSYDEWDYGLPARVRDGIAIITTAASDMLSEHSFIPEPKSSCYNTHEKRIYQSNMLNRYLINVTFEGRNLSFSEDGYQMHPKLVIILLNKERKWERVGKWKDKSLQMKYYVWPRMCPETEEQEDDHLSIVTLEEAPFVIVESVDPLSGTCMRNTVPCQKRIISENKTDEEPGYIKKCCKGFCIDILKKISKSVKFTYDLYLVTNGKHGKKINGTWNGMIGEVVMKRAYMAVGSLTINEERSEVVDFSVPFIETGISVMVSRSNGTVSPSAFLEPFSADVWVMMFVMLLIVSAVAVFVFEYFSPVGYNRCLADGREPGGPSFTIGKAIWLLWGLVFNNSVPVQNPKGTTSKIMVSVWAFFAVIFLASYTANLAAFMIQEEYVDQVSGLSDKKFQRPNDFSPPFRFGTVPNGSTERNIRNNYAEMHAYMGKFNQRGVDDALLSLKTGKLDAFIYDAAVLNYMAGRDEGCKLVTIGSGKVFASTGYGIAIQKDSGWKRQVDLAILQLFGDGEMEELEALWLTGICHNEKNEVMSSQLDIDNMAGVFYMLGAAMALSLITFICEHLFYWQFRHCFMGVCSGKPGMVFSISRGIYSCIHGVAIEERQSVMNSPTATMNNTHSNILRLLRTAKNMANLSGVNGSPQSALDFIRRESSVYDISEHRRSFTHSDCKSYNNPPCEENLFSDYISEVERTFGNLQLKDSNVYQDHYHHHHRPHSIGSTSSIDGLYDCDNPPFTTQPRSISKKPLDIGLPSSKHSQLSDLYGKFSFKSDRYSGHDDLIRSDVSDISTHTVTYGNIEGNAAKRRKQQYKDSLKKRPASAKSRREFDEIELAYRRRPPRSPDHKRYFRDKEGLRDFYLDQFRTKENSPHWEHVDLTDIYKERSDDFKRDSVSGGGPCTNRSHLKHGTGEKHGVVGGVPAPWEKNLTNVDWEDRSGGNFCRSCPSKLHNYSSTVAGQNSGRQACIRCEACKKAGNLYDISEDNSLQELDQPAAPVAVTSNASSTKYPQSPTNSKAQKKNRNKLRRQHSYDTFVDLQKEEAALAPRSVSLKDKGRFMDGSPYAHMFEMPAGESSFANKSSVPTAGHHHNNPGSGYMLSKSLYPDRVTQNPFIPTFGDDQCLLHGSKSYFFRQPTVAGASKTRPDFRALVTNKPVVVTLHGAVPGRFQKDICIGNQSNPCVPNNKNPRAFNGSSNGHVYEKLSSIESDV
In another test the test system is NR1a/NR2B NMDA receptors. The following applies: Xenopus oocytes; ref Williams, 1993; cited from earlier work.
The target of the next test is rat brain membranes. As to conditions: ref Grimwood et al., 2000; cited from earlier work.
For the next test, the system named is GIRK channels. Also on record: species or system rat.
The subject of test [10] is NMDA receptor-induced substance P release. The test is described as follows: NMDA-induced NK1R internalization in slices preincubated with BDNF. Also on record: species or system rat.
The mark [11] stands for this setting: chelerythrine 10 μM, Ro-32-0432, TPPB 1 μM, with 10 nM DAMGO.
[12] abbreviates: chelerythrine 10 μM, Ro-32-0432, TPPB, PMA 1 μM.

Entries after “also recorded” stand apart in the source; their conditions may differ. Where a name gives a salt, the structure may show the parent alone. Read-outs that look alike come from different tables or passages of the source. Where no end group is shown, it is not given here.

Regarding `NC(CCCP(=O)(O)O)C(=O)O` (centres unmarked) [2-amino-phosphopentanoic acid], the “effect on NMDA-induced substance P release” value with NMDA receptors [1] is given as “inhibited”.
Consider `Nc1ncnc2c1nc(Br)n2[C@@H]1O[C@@H]2COP(=O)(O)O[C@H]2[C@H]1O` [8-Br-cAMP, 8-Bromoadenosine-3′,5′-cyclic monophosphate], for which the NK1R internalization elicited entry with AC/PKA pathway is “greater than NMDA+D-Ser, with 8-Br-cAMP producing the larger effect”.
With `CC1(C)C(=O)N=C2C1=C(O)C(=O)c1ccccc12` [BVT948, 4-hydroxy-3,3-dimethyl-2H-benz[g]indole-2,5(3H)-dione], the “effect on NMDA-induced NK1R internalization” value in test [2] is “substantially increased NMDA-induced NK1R internalization”.
Take `CCCCCCOC(=O)[C@]1(O)C[C@@H]2O[C@@]1(C)n1c3ccccc3c3c4c(c5c6ccccc6n2c5c31)C(=O)NC4` [KT5720, (9R,10S,12S)-2,3,9,10,11,12-Hexahydro-10-hydroxy-9-methyl-1-oxo-9,12-epoxy-1H-diindolo[1,2,3-fg:3′,2′,1′-kl]pyrrolo[3,4-i][1,6]benzodiazocine-10-carboxylic acid, hexyl ester]: the “effect on NMDA-induced NK1R internalization” value in the test on protein kinase A (PKA) is “did not completely abolish NMDA-induced NK1R internalization”. Also, the “effect on NMDA-induced NK1R internalization” value with protein kinase A (PKA) (listed as KT 5720) is “decreased”. Besides, in test [3], the “additional inhibition in presence of CTX GVIA” value is recorded as “did not produce any further inhibition” and the “additional inhibition in presence of CTX MVIIC” value is listed as “did not produce any further inhibition”.
For `C[C@]12N[C@H](Cc3ccccc31)c1ccccc12` [MK-801, (5S,10R)-(+)-5-Methyl-10,11-dihydro-5H-dibenzo[a, d]cyclohepten-5,10-imine maleate], in the test on AC/PKA pathway (10 μM MK-801 or 1 μM DAMGO with 10 μM forskolin), the “effect on forskolin-evoked substance P release” value is reported as “substantially decreased their effect on substance P release, although not to control levels”. For the same molecule, in the test with AC/PKA pathway (10 μM MK-801 or 1 μM DAMGO with 0.5 mM 8-Br-cAMP), the “effect on 8-Br-cAMP-evoked substance P release” value is “substantially decreased their effect on substance P release, although not to control levels”. Moreover, the “effect on NMDA-induced substance P release” value with NMDA receptors [1] is “inhibited”.
As for `CN[C@H](CC(=O)O)C(=O)O` [NMDA, N-methyl-D-aspartate], the “NK1R internalization induced (lamina I NK1R neurons)” value with NMDA receptors [4] is on record as “about 50%”. Also, the “lamina 1 neurons with NK1R internalization in example image” value in [5] is recorded as “there was no NK1R internalization”. For the same molecule, in [6], the “[Ca2+]i increase” value is listed as “increases in some of the neurons”.
As for `CN(C)C[C@H]1CCn2c(c(C3=C(c4cn(C)c5ccccc45)C(=O)NC3=O)c3ccccc32)C1.Cl` [Ro-32-0432, 3-[(8S)-8-[(Dimethylamino)methyl]-6,7,8,9-tetrahydropyrido[1,2-a]indol-10-yl]-4-(1-methyl-1H-indol-3-yl)-1H-pyrrole-2,5-dione hydrochloride], the “effect on inhibition by 10 nM DAMGO” value in the test on protein kinase C (PKC) (setting [11]) is “did not increase its inhibition by DAMGO”. In addition, the “effect on NMDA-induced substance P release” value in the test on protein kinase C (PKC) (setting [12]) was “did not affect NMDA-induced substance P release”.
As for `Nc1ncnc2c1ncn2C1CCCO1` (centres unmarked) [SQ22536, 9-(Tetrahydro-2-furanyl)-9H-purin-6-amine], the “effect on NMDA-induced NK1R internalization” value in the test on adenylyl cyclase (AC) is recorded as “but not at 10 μM”. Besides, in [3], the “additional inhibition in presence of CTX GVIA” value is recorded as “did not produce any further inhibition” and the “additional inhibition in presence of CTX MVIIC” value is “did not produce any further inhibition”.
For the molecule `CC(C)[C@H]1C(=O)N[C@H](CO)Cc2cc(NC(=O)/C=C/C=C/c3ccc(C(F)(F)F)cc3)ccc2N1C` [TPPB, (2E4E)-N-[(2S,5S)-1,2,3,4,5,6-Hexahydro-5-(hydroxymethyl)-1-methyl-2-(1-methylethyl)-3-oxo-1,4-benzodiazocin-8-yl]-5-[4-(trifluoromethyl)phenyl]-2,4-pentadienamide], in the test with protein kinase C (PKC), the “effect on inhibition by 10 nM DAMGO” value was “did not affect inhibition by 10 nM DAMGO” and the “effect on NMDA-induced substance P release” value was “strongly increased NMDA-induced substance P release”.
For the molecule `NCC(CC(=O)O)c1ccc(Cl)cc1` (centres unmarked) [baclofen], the “effect on substance P release by dorsal root or low-concentration capsaicin” value with TRPV1 channels [7] (capsaicin on dorsal root or low concentrations, ref Lao et al., 2003) is on record as “can be inhibited”. The “effect on substance P release by higher concentrations of capsaicin” value in the test with TRPV1 channels [7] (higher capsaicin concentrations, ref Lao et al., 2003) is given as “did not inhibit substance P release”.
For `COc1cc(CNC(=O)CCCC/C=C/C(C)C)ccc1O` [capsaicin], in the test with TRPV1 channels [8], the “NK1R internalization elicited by 0.3 μM capsaicin” value is listed as 75% and the “NK1R internalization elicited by 1 μM capsaicin” value is listed as “maximal NK1R internalization”. Besides, the “effect of substance P depletion on NMDA-induced substance P release” value in the test with NMDA receptors [1] (C-fibers depleted by incubating slices with capsaicin) is “disappears”. Further, the EC50 (as a rule, the concentration that produces a half-maximal response) in the test with TRPV1 channels [7] (read-out: EC50 to induce NK1R internalization, ref Marvizon et al., 2003a) was 370 nM.
Turning to `Oc1cc2c(cc1O)CN(C(=S)NCCc1ccc(Cl)cc1)CCC2` [capsazepine], the “effect on capsaicin-induced substance P release (TRPV1 antagonist)” value in the test on TRPV1 channels [7] (ref Lao et al., 2003) is given as “blocked”.
In the case of `COc1ccc2c(c[n+](C)c3c4cc5c(cc4ccc23)OCO5)c1OC` [chelerythrine], in the test with protein kinase C (PKC) (setting [11]), the “effect on inhibition by 10 nM DAMGO” value was “did not increase its inhibition by DAMGO; also recorded: showed a trend to decrease the inhibition by 10 nM DAMGO”. In addition, the “effect on NMDA-induced substance P release” value in the test with protein kinase C (PKC) (setting [12]) was “did not affect NMDA-induced substance P release”.
`C=C[C@@]1(C)CC(=O)[C@]2(O)[C@@]3(C)[C@@H](O)CCC(C)(C)[C@@H]3[C@H](O)[C@H](OC(C)=O)[C@@]2(C)O1` [forskolin]: the NK1R internalization elicited entry in the test with AC/PKA pathway is recorded as “greater than NMDA+D-Ser”.
`CC(C(O)c1ccc(O)cc1)N1CCC(Cc2ccccc2)CC1` (centres unmarked) [ifenprodil]: in test [9], the top is given as 62 ± 3%. For the same molecule, the bottom in [9] (basal without NMDA 12±1%) came out at 26 ± 2%. Moreover, in the test on NR1a/NR2B NMDA receptors, the “potency to inhibit currents” value is recorded as 340 nM. For the same molecule, the Kd (in general, the equilibrium constant for the complex coming apart) on rat brain membranes is 25 nM.
With `CCN(CC)CC(=O)Nc1c(C)cccc1C` [lidocaine], the “effect on NMDA-induced substance P release (action potential block)” value with NMDA receptors [1] is “not affected”.
“PKI 14–22: protein kinase inhibitor 14–22, PKA inhibitor (GRTGRRNAI; also: myristoylated; UniProt P61925 15-23, looked up, fragment)”: in the test on protein kinase A (PKA), the “effect on NMDA-induced NK1R internalization” value is “decreased”.
In the case of tertiapin Q, in the test on GIRK channels, the “effect on NMDA-induced NK1R internalization” value is reported as “small but significant inhibition” and the “effect on inhibition by DAMGO” value is “did not affect the inhibition by DAMGO”.

B1: BDNF: brain-derived neurotrophic factor (protein, UniProt P23560 19-247, looked up)
Neurotrophic factor BDNF …: APMKEANIRGQGGLAYPGVRTHGTLESVNGPKAGSRGLTSLADTFEHVIEELLDEDQKVRPNEENNKDADLYTSRVMLSSQVPLEPPLLFLLEEYKNYLDAANMSMRVRRHSDPARRGELSVCDSISEWVTAADKKTAVDMSGGTVTVLEKVPVSKGQLKQYFYETKCNPMGYTKEGCRGIDKRHWNSQCRTTQSYVRALTMDSKKRIGWRFIRIDTSCVCTLTIKRGR
Turning to B1, the “lamina 1 neurons with NK1R internalization in example image” value in [5] is on record as 5 out of 7 cells. Further, the “effect of BDNF on NMDA-induced NK1R internalization” value in test [5] (intrathecal BDNF 0.3 μg, 4 h before NMDA + D-Ser, p<0.01 vs NMDA) is listed as “significant increase in NMDA-induced NK1R internalization”. For the same molecule, the “effect on NMDA-induced NK1R internalization” value in [10] was “increased NMDA-induced NK1R internalization”.
